Test results reported in patent US9504672B2, “Compositions and methods for treating or preventing pneumovirus infection and associated diseases” (MicroDose Therapeutx, Inc., priority 2012, dated 2016).
In brackets after ≈: the same amount, converted by molar mass.

Experiments:
[1] = Slurry of equal mixture of six phases in 75/25 acetone-water (PXRD); assay type: physicochemical; conditions: 25° C., 12 days
Method: An equal powder mixture of six known phases (P-2, P-3, P-4, P-6, P-7 and P-8), 50 mg each were stirred in 75/25 acetone-water solvent (50 mL) at 25° C. over 12 days.

[2] = Thermodynamic relationship (hierarchy) of P-2 and P-3 crystal forms; assay type: physicochemical; conditions: sufficient activity of ethanol, preferably above 0.3
From the text: FIG. 17 illustrates the thermodynamic relationship (hierarchy) of the P-2 and P-3 families of crystal forms.

physchem = conditions: organic solvent or mixture, thermodynamic from solid, equilibrium solubility
Method: Equilibrium solubility of different API forms in aqueous ethanol: This solubility was determined for P-2 and P-3 crystal forms using slurry equilibration and solution concentration measurement with HPLC.

SMILES	form conversion / stability in six-phase slurry [1]	thermodynamic stability [2]	solubility thermodynamic (physchem)
Cc1nnnn1/N=C/c1ccc(O)c(C(c2ccc(O)cc2)c2cc(/C=N/n3nnnc3C)ccc2O)c1 [P-6, phenol, 2,2′-[(4-hydroxyphenyl)methylene]bis[4-[[(5-methyl-1H-tetrazol-1-yl)imino]methyl]]]	convert to P-2 hydrate		
Cc1nnnn1/N=C/c1ccc(O)c(C(c2ccc(O)cc2)c2cc(/C=N/n3nnnc3C)ccc2O)c1 [P-7, phenol, 2,2′-[(4-hydroxyphenyl)methylene]bis[4-[[(5-methyl-1H-tetrazol-1-yl)imino]methyl]]]	convert to P-2 hydrate		
Cc1nnnn1/N=C/c1ccc(O)c(C(c2ccc(O)cc2)c2cc(/C=N/n3nnnc3C)ccc2O)c1 [P-8, phenol, 2,2′-[(4-hydroxyphenyl)methylene]bis[4-[[(5-methyl-1H-tetrazol-1-yl)imino]methyl]]]	convert to P-2 hydrate		
Cc1nnnn1/N=C/c1ccc(O)c(C(c2ccc(O)cc2)c2cc(/C=N/n3nnnc3C)ccc2O)c1 [P-3 ethanolate, phenol, 2,2′-[(4-hydroxyphenyl)methylene]bis[4-[[(5-methyl-1H-tetrazol-1-yl)imino]methyl]]]		most stable crystal form	240 µg/mL (≈ 470 µM)
Cc1nnnn1/N=C/c1ccc(O)c(C(c2ccc(O)cc2)c2cc(/C=N/n3nnnc3C)ccc2O)c1 [P-4, phenol, 2,2′-[(4-hydroxyphenyl)methylene]bis[4-[[(5-methyl-1H-tetrazol-1-yl)imino]methyl]]]	convert to P-2 hydrate		
